Data on one compound can be found in patent US12514800B2, “Personal and home care compositions comprising fatty acids from tung seed oil as antimicrobial preservative” (GALAXY SURFACTANTS LTD., priority 2020, dated 2026).

A short description of the series: UV absorption (E1% 1 cm). Type of series: physicochemical. Conditions: at the λmax printed in Table 1 (290 nm fatty acids; 305 nm Homosalate, Octyl salicylate). An excerpt:
Personal care composition comprising fatty acids, as obtained synthetically from Tung seed oil by aforementioned process, have good UV absorbing activity arising from the conjugated system of the fatty acids and is evident from its value of E1% lcm which is 1600 at 270 nm and 360 at 290 nm. In view of incorporation of the fatty acids in the personal care composition, not only the ingredients of the formulations are protected but also the skin and hair are protected from the ravages of solar radiation when the formulations are applied. […] The same is evident from the values of E1% lcm which is 360 at 290 nm (FIG. 2). UV B radiation of solar spectrum is the most damaging since it causes skin cancer.

Regarding `CC1CC(OC(=O)c2ccccc2O)CC(C)(C)C1` (stereo not shown) [Homosalate], the “E1%, 1 cm” value is reported as 180.
